Consider two molecules from patent US10653709B2, “Methods of folding a graft copolymer with dual anticancer drugs and related applications” (priority 2014, dated 2020).

Each structure is given as a SMILES string.

Common to all, as to type: cell-based
The test system of assay [1] is HL-60. Nature of the assay: In vitro cytotoxicity, CellTiter-Glo Luminescent Cell Viability Assay. The conditions noted are these: Homo sapiens, HL-60 (leukemia), suspension cells, mean ± SD.
The test system of assay [2] is PC-3. Nature of the assay: In vitro cytotoxicity, MTT assay. The settings on record: Homo sapiens; PC-3 (prostate), 48 hours, mean ± SD. As to the method:
(§1) In vitro cytotoxicity of CPT, Dox, MB-20 and MB-20/Dox was measured using the 3-(4,5-dimethylthiazol-2-yl)-2,5-diphenyltetrazolium bromide (MTT) assay. Briefly, cancer cells were seeded in a 96-well plate at a density of 5,000 cells per well. After 12 h incubation, a series of drug dilution (1 nM to 300 μM) were added into wells. After 48 h of drug treatment, the cytotoxicity was measured using the MTT assay. To enhance the assay sensitivity, Sorensen's glycine buffer (0.1 M glycine, 0.1 M NaCl adjust pH to 10.5 with 0.1 N NaOH) was added into wells before absorbance assay. See Plumb et al., Cancer Res., 49, 4435-4440 (1989); Tai et al., Mol. Pharm., 8, 901-912 (2011); and Tai et al., Mol. Pharm., 10, 477-487 (2013). The absorbance at wavelength of 570 nm was measured using a microplate reader (Infinite® M200 PRO, Tecan, Mannedorf, Switzerland). The half-maximal inhibitory concentration (IC50) was calculated by fitting a concentration—absorbance curve using the Graphpad Prism 5 software (Graphpad Software Inc., San Diego, Calif., United States of America).
In general terms: Tetrazolium assays rely on reduction of a dye to a coloured formazan, in cell work by metabolically active cells.

Assay [3] relates to A549. Kind of assay: In vitro cytotoxicity, MTT assay. The conditions noted are these: Homo sapiens; A549 (lung), 48 hours, mean ± SD. As to the method: as §1
Assay [4] relates to NCI-H441. Nature of the assay: In vitro cytotoxicity, MTT assay. The conditions noted are these: Homo sapiens; NCI-H441 (lung), 48 hours, mean ± SD. As to the method:
as §1

Assay [5] deals with MDA-MB-468. Kind of assay: In vitro cytotoxicity, MTT assay. The conditions noted are these: Homo sapiens; MDA-MB-468 (breast), 48 hours, mean ± SD. Here is the method: as §1
For assay [6], the system named is MDA-MB-231. Kind of assay: In vitro cytotoxicity, MTT assay. The conditions noted are these: Homo sapiens; MDA-MB-231 (breast), 48 hours, mean ± SD. As to the method: as §1
Assay [7] has as its system Hep G2. Nature of the assay: In vitro cytotoxicity, MTT assay. The settings on record: Homo sapiens, HepG2; Hep G2 (liver), 48 hours, mean ± SD. Here is the method: as §1
Assay [8] concerns HeLa. Nature of the assay: In vitro cytotoxicity, MTT assay. The settings on record: Homo sapiens; HeLa (cervix), 48 hours, mean ± SD. As to the method: as §1
Assay [9] concerns MCF-7. Kind of assay: In vitro cytotoxicity, MTT assay. The conditions noted are these: Homo sapiens, MCF7; MCF-7 (breast), 48 hours, mean ± SD. Here is the method: as §1
Assay [10] deals with panel of 9 cancer cell lines. Nature of the assay: In vitro cytotoxicity across the panel. The settings on record: range over the panel, 48 hours; read-out: IC50s across cancer cell lines. Here is the method:
as §1

With `COc1cccc2c1C(=O)c1c(O)c3c(c(O)c1C2=O)C[C@@](O)(C(=O)CO)C[C@@H]3O[C@H]1C[C@H](N)[C@H](O)[C@H](C)O1` [Dox, doxorubicin], the IC50 in [1] was 300 nM; in assay [2] it was 200 ± 400 nM; in assay [3], 500 ± 800 nM; in assay [4], 200 ± 400 nM; in [5], 100 nM; in assay [6], 100 nM. Besides, the values for the IC50 in assay [7], in [8] and in [9] were 500 ± 1400 nM, 1000 ± 1700 nM and 300 nM, respectively.

As to `CC[C@@]1(O)C(=O)OCc2c1cc1n(c2=O)Cc2cc3ccccc3nc2-1` [CPT, camptothecin], the IC50 in [10] is 20 to 3300 nM; in assay [1], 400 ± 1000 nM; in assay [2] it was 20 nM; in assay [3], 300 nM; in assay [4], 100 ± 200 nM; in [5], 90 ± 90 nM. Further, the IC50 was 600 ± 500 nM in assay [6], 600 ± 1400 nM in assay [7], 3300 ± 1500 nM in assay [8] and 1200 ± 1000 nM in assay [9].
